SMILES strings stand for the structures. Counter-ions that a name gives are not always drawn.

The assay concerns the target T1, human B1 (Homo sapiens, UniProt P46663).
T1 construct: host or cells: CHO-K1
T1 sequence (P46663 1-353): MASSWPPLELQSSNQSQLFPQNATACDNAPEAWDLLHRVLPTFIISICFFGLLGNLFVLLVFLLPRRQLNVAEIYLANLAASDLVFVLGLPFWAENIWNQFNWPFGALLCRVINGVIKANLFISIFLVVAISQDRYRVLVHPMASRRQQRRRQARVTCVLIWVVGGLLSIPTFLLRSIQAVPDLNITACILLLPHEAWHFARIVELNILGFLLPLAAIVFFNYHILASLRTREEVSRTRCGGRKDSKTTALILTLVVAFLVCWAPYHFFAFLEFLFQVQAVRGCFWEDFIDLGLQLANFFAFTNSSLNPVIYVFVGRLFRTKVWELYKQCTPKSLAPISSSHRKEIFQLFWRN
As to the kind of experiment: Calcium flux assay for Bradykinin B1 antagonist, CHO-K1 cell line expressing human B1. The following applies: CHO-K1 cells expressing human B1, agonist Lys-(Des-Arg)-Bradykinin, read-out: Potency (IC50 value against human B1). The assay is classed as cell-based. In outline:
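CHO-K1 cells expressing human B1, loaded with 5 μM Fluo-4AM (2 h, 37° C) in HEPES buffer pH 7.4 with probenecid and 0.1% BSA, were preincubated 30 min at 25° C with compound (8 concentrations, triplicate, 1% DMSO) before B1 agonist addition. Ca2+ fluorescence monitored at 538 nm; background-normalized integrated values plotted against log antagonist concentration.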

Take `COc1cc(C)c(S(=O)(=O)N(C)Cc2noc(C(=O)NCCc3ccc(C4=NCCN4)cc3)n2)c(C)c1` [Ex 64, N-{2-[4-(4,5-dihydro-1H-imidazol-2-yl)phenyl]ethyl}-3-({[(4-methoxy-2,6-dimethylphenyl)sulfonyl](methyl)amino}methyl)-1,2,4-oxadiazole-5-carboxamide]: the IC50 was below 10 nM.
As for `COc1cc(C)c(S(=O)(=O)N(C)Cc2cc(C(=O)N3CCN(C4CCN(C)CC4)CC3)no2)c(C)c1` [Ex 65, 4-Methoxy-N,2,6-trimethyl-N-[(3-{[4-(1-methylpiperidin-4-yl)piperazin-1-yl]carbonyl}isoxazol-5-yl)methyl]benzenesulfonamide], the figure is 100 to 1000 nM; as for `COc1cc(C)c(S(=O)(=O)N(C)Cc2nc(C(=O)N3CCN(C4CCN(C)CC4)CC3)co2)c(C)c1` [Ex 66, 4-Methoxy-N,2,6-trimethyl-N-[(4-{[4-(1-methylpiperidin-4-yl)piperazin-1-yl]carbonyl}-1,3-oxazol-2-yl)methyl]benzenesulfonamide], 10 to 100 nM; as for `COc1cc(C)c(S(=O)(=O)N(C)Cc2nc(C(=O)NCCc3ccc(C4=NCCN4)cc3)co2)c(C)c1` [Ex 67, N-{2-[4-(4,5-dihydro-1H-imidazol-2-yl)phenyl]ethyl}-2-({[(4-methoxy-2,6-dimethylphenyl)sulfonyl](methyl)amino}methyl)-1,3-oxazole-4-carboxamide], below 10 nM.
Regarding `COc1cc(C)c(S(=O)(=O)N(C)Cc2nc(C(=O)NCc3ccc(C4=NCCN4)cc3)co2)c(C)c1` [Ex 68, N-[4-(4,5-dihydro-1H-imidazol-2-yl)benzyl]-2-({[(4-methoxy-2,6-dimethylphenyl)sulfonyl](methyl)amino}methyl)-1,3-oxazole-4-carboxamide], the IC50 fell in the range of 100 to 1000 nM.
Turning to `COc1cc(C)c(S(=O)(=O)N(C)Cc2nc(C(=O)N(C)CCc3ccc(C4=NCCN4)cc3)co2)c(C)c1` [Ex 69, N-{2-[4-(4,5-dihydro-1H-imidazol-2-yl)phenyl]ethyl}-2-({[(4-methoxy-2,6-dimethylphenyl)sulfonyl](methyl)amino}methyl)-N-methyl-1,3-oxazole-4-carboxamide], the IC50 is below 10 nM.
As to `COc1cc(C)c(S(=O)(=O)N(C)Cc2nc(C(=O)N(C)Cc3ccc(C4=NCCN4)cc3)co2)c(C)c1` [Ex 70, N-[4-(4,5-dihydro-1H-imidazol-2-yl)benzyl]-2-({[(4-methoxy-2,6-dimethylphenyl)sulfonyl](methyl)amino}methyl)-N-methyl-1,3-oxazole-4-carboxamide], the IC50 is below 10 nM.
On to `COc1cc(C)c(S(=O)(=O)N(C)Cc2nc(C(=O)N(C)Cc3ccc(CN4CCCC4)cc3)co2)c(C)c1` [Ex 71, 2({[(4-Methoxy-2,6dimethylphenyl)sulfonyl](methyl)amino}methyl)-N-methyl-N-[4-(pyrrolidin-1-ylmethyl)benzyl]-1,3-oxazole-4-carboxamide], for which the IC50 was below 10 nM.
As for `COc1cc(C)c(S(=O)(=O)N(C)Cc2nc(C(=O)NCc3ccc(CN4CCCC4)cc3)co2)c(C)c1` [Ex 72, 2-({[(4-Methoxy-2,6dimethylphenyl)sulfonyl](methyl)amino}methyl)-N-[4-(pyrrolidin-1-ylmethyl)benzyl]-1,3-oxazole-4-carboxamide], the figure is 10 to 100 nM; as for `COc1cc(C)c(S(=O)(=O)N(C)Cc2nc(C(=O)N(C)Cc3cccc(CN4CCCC4)c3)co2)c(C)c1` [Ex 73, 2-({[(4-Methoxy-2,6-dimethylphenyl)sulfonyl](methyl)amino}methyl)-N-methyl-N-[3-(pyrrolidin-1-ylmethyl)benzyl]-1,3-oxazole-4-carboxamide], below 10 nM; as for `COc1cc(C)c(S(=O)(=O)N(C)Cc2nc(C(=O)NCc3cccc(CN4CCCC4)c3)co2)c(C)c1` [Ex 74, 2-({[(4-Methoxy-2,6-dimethylphenyl)sulfonyl](methyl)amino}methyl)-N-[3-(pyrrolidin-1-ylmethyl)benzyl]-1,3-oxazole-4-carboxamide], below 10 nM.
For `COc1cc(C)c(S(=O)(=O)N(Cc2nc(C(=O)N(C)Cc3ccc(CN4CCCC4)cc3)co2)C2CC2)c(C)c1` [Ex 75, 2-({Cyclopropyl[(4-methoxy-2,6-dimethylphenyl)sulfonyl]amino}methyl)-N-methyl-N-[4-(pyrrolidin-1-ylmethyl)benzyl]-1,3-oxazole-4-carboxamide], the IC50 is below 10 nM.
In the case of `COc1cc(C)c(S(=O)(=O)N(Cc2nc(C(=O)NCc3ccc(CN4CCCC4)cc3)co2)C2CC2)c(C)c1` [Ex 76, 2-({Cyclopropyl[(4-methoxy-2,6-dimethylphenyl)sulfonyl]amino}methyl)-N-[4-(pyrrolidin-1-ylmethyl)benzyl]-1,3-oxazole-4-carboxamide], the IC50 was below 10 nM.
`COc1cc(C)c(S(=O)(=O)N(Cc2nc(C(=O)N(C)Cc3cccc(CN4CCCC4)c3)co2)C2CC2)c(C)c1` [Ex 77, 2-({Cyclopropyl[(4-methoxy-2,6-dimethylphenyl)sulfonyl]amino}methyl)-N-methyl-N-[3-(pyrrolidin-1-ylmethyl)benzyl]-1,3-oxazole-4-carboxamide]: the IC50 was below 10 nM.
`COc1cc(C)c(S(=O)(=O)N(Cc2nc(C(=O)NCc3cccc(CN4CCCC4)c3)co2)C2CC2)c(C)c1` [Ex 78, 2-({Cyclopropyl[(4-methoxy-2,6-dimethylphenyl)sulfonyl]amino}methyl)-N-[3-(pyrrolidin-1-ylmethyl)benzyl]-1,3-oxazole-4-carboxamide]: the IC50 is below 10 nM.
For `COc1cc(C)c(S(=O)(=O)N(Cc2nc(C(=O)N(C)CCc3ccc(C4=NCCN4)cc3)co2)C2CC2)c(C)c1` [Ex 79, 2-({Cyclopropyl[(4-methoxy-2,6-dimethylphenyl)sulfonyl]amino}methyl)-N-{2-[4-(4,5-dihydro-1H-imidazol-2-yl)phenyl]ethyl}-N-methyl-1,3-oxazole-4-carboxamide], the IC50 is below 10 nM.
With `COc1cc(C)c(S(=O)(=O)N(C)Cc2nc(C(=O)N(C)CCc3ccc(C4=NCCN4)cc3)cs2)c(C)c1` [Ex 80, N-{2-[4-(4,5-dihydro-1H-imidazol-2-yl)phenyl]ethyl}-2-({[(4-methoxy-2,6-dimethylphenyl)sulfonyl](methyl)amino}methyl)-N-methyl-1,3-thiazole-4-carboxamide], the IC50 fell in the range of 100 to 1000 nM.
Take `COc1cc(C)c(S(=O)(=O)N(C)Cc2nc(C(=O)N(C)Cc3ccc(C4=NCCN4)cc3)cs2)c(C)c1` [Ex 81, N-[4-(4,5-dihydro-1H-imidazol-2-yl)benzyl]-2-({[(4-methoxy-2,6-dimethylphenyl)sulfonyl](methyl)amino}methyl)-N-methyl-1,3-thiazole-4-carboxamide]: the IC50 fell in the range of 100 to 1000 nM.
On to `COc1cc(C)c(S(=O)(=O)N(Cc2cc(C(=O)NCc3ccc(C4=NCCN4)cc3)co2)C2CC2)c(C)c1` [Ex 82, 5-({cyclopropyl[(4-methoxy-2,6-dimethylphenyl)sulfonyl]amino}methyl)-N-[4-(4,5-dihydro-1H-imidazol-2-yl)benzyl]furan-3-carboxamide trifluoroacetate], for which the IC50 lay within 100 to 1000 nM.
Take `COc1cc(C)c(S(=O)(=O)N(Cc2cc(C(=O)N(C)Cc3ccc(C4=NCCN4)cc3)co2)C2CC2)c(C)c1` [Ex 83, 5-({cyclopropyl[(4-methoxy-2,6-dimethylphenyl)sulfonyl]amino}methyl)-N-[4-(4,5-dihydro-1H-imidazol-2-yl)benzyl]-N-methylfuran-3-carboxamide trifluoroacetate]: the IC50 lay in the range of 10 to 100 nM.
As for `COc1cc(C)c(S(=O)(=O)N(Cc2cc(C(=O)N(C)CCc3ccc(C4=NCCN4)cc3)co2)C2CC2)c(C)c1` [Ex 84, 5-({cyclopropyl[(4-methoxy-2,6-dimethylphenyl)sulfonyl]amino}methyl)-N-{2-[4-(4,5-dihydro-1H-imidazol-2-yl)phenyl]ethyl}-N-methylfuran-3-carboxamide trifluoroacetate], the half-maximal inhibitory concentration (IC50) is below 10 nM.
Take `COc1cc(C)c(S(=O)(=O)N(C)C(C)c2cc(C(=O)NCCc3ccc(C4=NCCN4)cc3)co2)c(C)c1` (stereo not shown) [Ex 85, N-{2-[4-(4,5-dihydro-1H-imidazol-2-yl)phenyl]ethyl}-5-(1-{[(4-methoxy-2,6-dimethylphenyl)sulfonyl](methyl)amino}ethyl)furan-3-carboxamide trifluoroacetamide]: the IC50 lay within 100 to 1000 nM.
Consider `COc1cc(C)c(S(=O)(=O)N(C)Cc2cc(C(=O)NCCc3ccc(C4=NCCN4)cc3)co2)c(CO)c1` [Ex 86, N-{2-[4-(4,5-Dihydro-1H-imidazol-2-yl)phenyl]ethyl}-5-{[{[2-(hydroxymethyl)-4-methoxy-6-methylphenyl]sulfonyl}(methyl)amino]methyl}furan-3-carboxamide trifluoroacetate], for which the IC50 was in the range of 100 to 1000 nM.
Turning to `Cc1cc(O)cc(C)c1S(=O)(=O)N(C)Cc1cc(C(=O)N(C)CCc2ccc(C3=NCCN3)cc2)co1` [Ex 87, N-{2-[4-(4,5-Dihydro-1H-imidazol-2-yl)phenyl]ethyl}-5-({[(4-hydroxy-2,6-dimethylphenyl)sulfonyl](methyl)amino}methyl)-N-methylfuran-3-carboxamide, trifluoroacetate], the half-inhibitory concentration (IC50) lay in the range of 10 to 100 nM.
Under `COc1cc(C)c(S(=O)(=O)N(C)Cc2cc(C(=O)N(C)Cc3ccc(C(C)N4CCCC4)cc3)co2)c(C)c1` (stereo not shown) [Ex 88, 5-({[(4-Methoxy-2,6-dimethylphenyl)sulfonyl](methyl)amino}methyl)-N-methyl-N-[4-(1-pyrrolidin-1-ylethyl)benzyl]furan-3-carboxamide trifluoroacetate] stands 100 to 1000 nM.
